Data on 1 compound can be found in patent US8481551B2, “Gyrase and topoisomerase IV inhibitors” (Vertex Pharmaceuticals Incorporated, priority 2011, dated 2013).

Each structure is given as a SMILES string. Where a name gives a salt, the structure may show the parent alone.

What is called MIC is the smallest concentration in the dilution series that meets the test's criterion for growth inhibition. Read a high MIC as a less susceptible organism. For orientation: MIC90 means the lowest concentration that inhibits either 90% of growth or 90% of the strains tested, depending on the study. Higher therefore signals weaker potency. Broadly, the NOAEL is the highest dose or exposure tested at which no adverse effect was seen. The term AUC denotes the area under the concentration-time curve, a measure of exposure. High values mean high exposure, low ones low exposure.

One data set has as its system Moraxella catarrhalis. The data set can be described thus: Gyrase MIC against Gram negatives, microdilution broth method (Protocol 2). The class given is cell-based. On the technique in general: Broth dilution looks for growth in wells or tubes with falling amounts of substance.
The next data set deals with Neisseria gonorrhoeae. The data set can be described thus: Gyrase MIC, agar dilution method (Protocol 3). The class given is cell-based. Background: Agar dilution tests growth on a series of plates holding different concentrations.
In a further data set the test system is Neisseria meningitidis. The data set can be described thus: Gyrase MIC, agar dilution method (Protocol 3). The class given is cell-based. The note with it: 12 isolates tested.
The subject of another data set is Peptostreptococcus spp. The data set can be described thus: Gyrase MIC, agar dilution method (Protocol 3). The note with it: 11 isolates tested. The class given is cell-based.
The next data set deals with Nocardia caviae. The data set can be described thus: MIC determination procedure for Mycobacterium species (Protocol 4). It is filed as cell-based. The note with it: Nocardia otitidiscaviarum.
The nature of data set [1]: Seven-day oral (gavage) toxicity and toxicokinetics study in rats. It is filed as in vivo, Crl:CD(SD) rats. The note with it: for AUC: oral gavage. The text has this:
Crl:CD(SD) rats were obtained from Charles River Laboratories of Stone Ridge, N.Y. The animals were laboratory bred and experimentally naïve. Rats were chosen because they are a species that is commonly used for nonclinical toxicity evaluations.
Forty rats (20 noncannulated males and 20 males with jugular vein cannulas) were ordered. From these animals, 15 noncannulated males and 15 cannulated males were used. Animals were as uniform in age as possible. The rats were prepubertal to young adult, approximately 9 weeks of age at initiation of dosing. Their supplier-calculated birth date was retained in the study records. The weight range for the animals at the time of allocation to groups was 218.5-306.3 g.
Animals received the test article or vehicle by oral gavage for 7 consecutive days and were terminated the day following completion of dosing. The first day of dosing was designated as Day 1 of the study. The animals were evaluated for changes in clinical signs, body weight, and other parameters as described below.
The vehicle and test article were administered by oral gavage once daily for 7 consecutive days at a dose volume of 10 mL/kg body weight for Group A and Groups B-D, respectively. The test article and vehicle were administered by oral gavage twice daily, approximately 8 hours apart, for 7 consecutive days at a dose volume of 10 mL/kg body weight for Group E and Group F, respectively. The actual volume administered to each animal was calculated and adjusted based on the most recent body weight of each animal.
The postdosing observations made during treatment occurred at the following times based on Cmax/Tmax for the two compounds from previous studies:
Prior to start of dosing, body weights were measured for randomization on Day 1. During the treatment, body weights were measured on Day 1 and Day 7. In addition, fasted body weights were measured prior to necropsy for calculation of organ/body weight ratios.
Throughout the study, food consumption was measured daily starting 3 days prior to start of dosing.
Blood samples for evaluation of hematology, coagulation, and serum chemistry parameters were collected from all animals from the retro-orbital plexus (under CO2/O2 anesthesia, for the main study animals) or jugular vein cannula (for the toxicokinetic animals) prior to necropsy. Due to residual heparin used to keep the cannulas patent for the toxicokinetic animals, coagulation samples from these rats, were not able to be analyzed. The animals were fasted overnight prior to blood collection. On the day of blood collection for clinical pathology analyses, the animals were not necropsied until after the blood was collected and the samples judged to be acceptable by the clinical pathology group.
An appropriate amount of blood was collected in EDTA-containing tubes. The whole blood samples were analyzed for the parameters indicated below in Table 11.
An appropriate amount of blood was collected in tubes containing sodium citrate and then centrifuged to obtain plasma for the determination of prothrombin time (PT) and activated partial thromboplastin time (APTT).
An appropriate amount of blood was collected in tubes without anticoagulant. The sample was allowed to clot and then was centrifuged to obtain serum. The serum was analyzed for the parameters indicated below in Table 12.
On the 1st and 7th day of dosing, blood samples (approximately 0.5 mL/sample) were collected from the jugular vein cannula for all toxicokinetic animals at the timepoints listed below into K3EDTA-containing tubes. […] Prior to each collection, a small sample of blood (with heparin blocking solution) was removed from the cannula and discarded. A new syringe was placed on the cannula, and the protocol-required sample was taken. The syringe with the blood sample was removed, and a new syringe with saline attached to the cannula. Blood volume was replaced with an equal volume of saline and then blocking solution placed in the cannula. […]

The mark [2] stands for this setting: Moraxella catarrhalis, 26 isolates tested.
The mark [3] stands for this setting: Neisseria gonorrhoeae, 13 isolates tested.
[4] abbreviates: 300 mg/kg twice a day, compared to controls treated twice a day.
Where [5] appears, read: male, Crl:CD(SD), rat, in vivo, po, 7 days.

For `CCNC(=O)Nc1nc2cc(-c3cnc(C(C)(C)O)nc3)c(F)c([C@H]3CCCO3)c2[nH]1` [Compound 23A, methanesulfonic acid salt of 1-ethyl-3-[6-fluoro-5-[2-(1-hydroxy-1-methyl-ethyl)pyrimidin-5-yl]-7-[(2R)-tetrahydrofuran-2-yl]-1H-benzimidazol-2-yl]urea], the MIC against Moraxella catarrhalis (ATCC25238, Moraxella catarrhalis ATCC 25238) was not above 0.016 µg/mL; in the data set on Moraxella catarrhalis (ATCC49143, Moraxella catarrhalis ATCC 49143), not above 0.016 µg/mL; with Neisseria gonorrhoeae (ATCC35541, Neisseria gonorrhoeae ATCC 35541), 0.42 µg/mL; in the data set with Neisseria gonorrhoeae (ATCC49226, Neisseria gonorrhoeae ATCC 49226), 1 µg/mL; against Nocardia caviae, 0.125 µg/mL. The MIC90 against Moraxella catarrhalis (setting [2]) was 0.03 µg/mL; against Neisseria gonorrhoeae (setting [3]) it was 0.25 µg/mL; against Neisseria meningitidis it was 0.03 µg/mL; against Peptostreptococcus spp., more than 16 µg/mL. Also, the “MIC Range” value against Moraxella catarrhalis (setting [2]) was “≦0.004-0.03^ μg/ml”; in the data set on Neisseria gonorrhoeae (setting [3]) it was 0.12 to 0.25 µg/mL; against Neisseria meningitidis, 0.008 to 0.06 µg/mL. The “mean ALT” value in data set [1] (setting [4]) was “statistically higher”. For the same compound, in data set [1] (setting [4]), the “mean AST” value is “statistically higher”. Further, in data set [1] (Compound 13 once daily 100 or 200 mg/kg, Compound 23A twice daily 300 mg/kg, not considered adverse), the Mean food consumption result is listed as “reduced during different intervals of the study”. The NOAEL at 7 days in data set [1] (Crl:CD(SD), rat, in vivo, po, 300 mg/kg, male rats, twice a day for 7 days orally via gavage, read-out: NOAEL (No-Observable-Adverse-Effect-Level)) is 300 mg/kg. Besides, the AUC in data set [1] (Crl:CD(SD), rat, in vivo, male rats, 100 mg/kg once a day for 7 days) turned out to be 82 µg·h/mL; in data set [1] (Crl:CD(SD), rat, in vivo, male rats, 300 mg/kg twice a day for 7 days), 291 µg·h/mL. In data set [1] (male rats, 7 days oral gavage), the “adverse observations / mean body weight” value was “No adverse observations or effects on mean body weight”. Besides, the histopathological findings result in data set [1] (male rats, any dose regimen) was “No test article-related histopathological findings”. Also, in data set [1] (male rats, toxicokinetics), the “exposures for different dosage levels” value is reported as “dose related”. Moreover, the “NOEL (No-Observable-Effect-Level)” value in data set [1] (setting [5]) was determined as 100 mg/kg. The “dose levels without adverse toxicity” value in data set [1] (setting [5]) is not above 600 mg/kg/day.
